In general, Ki refers to the equilibrium dissociation constant of an inhibitor or competing ligand from its target.

Each structure is given as a SMILES string. Structures can show the parent of a compound that is named as a salt.

In the test the target is Tryptophanase (Escherichia coli (strain K12), UniProt P0A853). In words: Enzyme Inhibition Assay. The following applies: pH 7.8; 25 °C. The text has this: Enzyme inhibition assay using tryptophanase.
Tryptophanase, sequence (P0A853 whole entry): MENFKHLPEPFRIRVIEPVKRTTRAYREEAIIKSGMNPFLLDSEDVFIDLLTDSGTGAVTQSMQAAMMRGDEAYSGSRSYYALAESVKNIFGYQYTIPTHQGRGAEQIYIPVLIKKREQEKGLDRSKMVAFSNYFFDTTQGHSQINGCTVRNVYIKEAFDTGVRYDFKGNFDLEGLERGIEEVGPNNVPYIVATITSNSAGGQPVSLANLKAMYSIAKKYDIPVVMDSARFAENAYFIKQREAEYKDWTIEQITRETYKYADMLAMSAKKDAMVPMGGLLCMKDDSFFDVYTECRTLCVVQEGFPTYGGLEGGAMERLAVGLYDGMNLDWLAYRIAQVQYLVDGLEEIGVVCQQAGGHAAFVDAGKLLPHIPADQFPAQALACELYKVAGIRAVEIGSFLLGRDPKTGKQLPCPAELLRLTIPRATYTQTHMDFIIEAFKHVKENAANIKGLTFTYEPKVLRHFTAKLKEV

For `CC(=O)NC(Cc1c[nH]c2ccccc12)C(=O)O` (configuration not stated) [N-acetyl tryptophan], the Ki was found to be 48 µM.

With `CCOC(=O)C(N)Cc1c[nH]c2ccccc12` [L-tryptophan-ethylester (p-toluene sulfuric acid salt)], the Ki turned out to be 52 µM.

The values above are taken from BindingDB's records for doi:10.1080/14756360802187612 (Ben-Gurion University of The Negev, 2009).
